Legend:
[1] = test system: HeLa cells; assay: AdU labeling of HeLa cells, stained with Alexa568-alkyne; type: cell-based; conditions: 10 μM AdU overnight, 10 μM Alexa568-alkyne; FIG. 16
Procedure: Here HeLa cells were labeled overnight in 10 μM AdU and then stained with 10 μM Alexa568-alkyne using the conditions described herein for staining cells labeled with EdU. FIG. 16 presents two pictures of a field of the stained HeLa cells.

[2] = test system: HeLa cells; assay: Tracing a single sister chromatid: EdU pulse, chase of two cell cycles, Alexa568-azide stain; type: cell-based; conditions: EdU pulse during DNA synthesis, Alexa568-azide with permeabilization, FIG. 13
Description: The purpose of the experiment reported herein was to label only one DNA molecule of the two that form a chromosome. That was accomplished by pulsing HeLa cells with EdU during DNA synthesis followed by a chase lasting two cell cycles, as depicted on FIG. 12. […] EdU allowed very nice resolution imaging of chromosomes in cells as shown by FIG. 13.

[3] = test system: mouse intestine and brain; assay: In vivo EdU labeling of mice, organ sections stained with Xrhodamine-azide and Hoechst; conditions: 200 micrograms EdU intraperitoneally, organs harvested three days later
Procedure: BLAB/C mice were injected with 200 micrograms of EdU intraperitoneally. Three days later, organs were harvested, fixed, embedded in paraffin and sectioned. The sections were then de-waxed and stained with Xrhadomine-azide for 5 minutes, stained with Hoechst, washed and then mounted.

[4] = test system: HeLa cells; assay: EdU labeling of HeLa cells, fixed/permeabilized, stained with Xrhodamine-azide (click chemistry); type: cell-based; conditions: 1 μM EdU, cell in anaphase, FIG. 11
Procedure: Ethynyl-dU (EdU) was used in tissue culture media (DMEM complemented with penicillin, streptomycin, and fetal calf serum (FCS)) ranging from 10 nM to 1 μM depending on the length of the labeling pulse. For example, if cells to be labeled were synchronized in the S phase, 100 nM to 1 μM of EdU was used for 1 to 2 hours. After labeling, the cells were washed 3 or 4 times with PBS and then tissue culture media was added.
Staining Solution: 100 mM Tris pH 8.5 (from 2 M stock in water), 0.5 to 1 mM CuSO4 (from 1 M stock in water), 0.5 to 1 μM fluorophore-azide (from approximately 10-100 mM stock in DMSO), and water (as required) were mixed together. Ascorbic acid (from a […] stock in water) was then added to this solution to a final concentration of 50-100 mM, and the resulting staining solution is mixed thoroughly using a vortex.
Cells can be fixed by any suitable method, e.g., cells can be fixed by aldehyde fixation (formaldehyde or glutaraldehyde), with or without permeabilization. After fixation, the cells were washed in buffer with or without non-ionic detergent (0.2-0.5% Triton X100). Before staining, cells were rinsed with buffer without detergent (PBS or TBS). The cells were then incubated in the presence of the staining solution for at least 30 minutes. Overnight staining is preferably performed in a cold room. […]

[5] = test system: HeLa cells; assay: Time-lapse fluorescence imaging of EdU-labeled live cells stained with TMR-propyl-azide; type: cell-based; conditions: 200 nM TMR-propyl-azide, 25 mM ascorbate, 1 mM copper (II) sulfate, 37° C.; FIG. 7
Procedure: Ascorbic acid (from a […] stock in water) was then added to this solution to a final concentration of 50 mM, and the resulting staining solution is mixed thoroughly.
Washes with methanol or ethanol may be performed to obtain low background
To facilitate live microscopic imaging, EdU-labeled cells were plated in coverslip chambers which were mounted on the heated stage (37° C.) of an inverted Nikon TE200)U microscope equipped for wide-field fluorescence microscopy as well as spinning-disk confocal fluorescence microscopy (Yokogama spinning disk confocal head from Perkin-Elmer). […] The cells were imaged by time-lapse fluorescent microscopy (one frame every 15 seconds) to detect the TMR signal accumulating in the nuclei of the EdU-labeled cells.

## [N-]=[N+]=Nc1cn([C@H]2C[C@H](O)[C@@H](CO)O2)c(=O)[nH]c1=O [AdU, 5-azido-2′-deoxyuridine]
[1]
  detection of AdU in labeled cells: clearly detected in the nuclei of the labeled interphase cells as well as in the condensed chromosomes of mitotic cells

## C#Cc1cn([C@H]2C[C@H](O)[C@@H](CO)O2)c(=O)[nH]c1=O [EdU, 5-ethynyl-2′deoxyuracil]
[2]
  DNA molecules of a chromosome labeled after first and second mitosis: In the first mitosis after labeling, both DNA molecules were labeled while in the second mitosis only one DNA molecule was labeled
[3]; FIG. 8
  EdU incorporation in intestine section: The cells with red nuclei are the cells which incorporated EdU and their descendants
[3]; FIG. 10
  EdU-labeled cells in brain section: A sole EdU-labeled cell can be easily identified
[4]
  EdU stain of cellular DNA (fluorescence microscopy): only the DNA replicating during the pulse was labeled
[5]
  time to complete EdU detection on live cells: complete within minutes

From patent US10550422B2, “Methods and compositions for labeling nucleic acids” (President and Fellows of Harvard College, priority 2005, dated 2020)
